Measurements published in patent US8686150B2 (Sanofi, priority 2011, dated 2014).

target: T1, human full-length recombinant PKC βII (Homo sapiens, UniProt P05771); experiment: Determination of PKC βII inhibition (Caliper mobility-shift kinase assay, Fluorescein-RFARKGSLRQKNV peptide substrate); format: biochemical; conditions: example compounds at a final concentration of 1.14 μM (±0.15 μM)
T1 construct: Active human full-length recombinant PKC βII; purchased Invitrogen GmbH, Darmstadt, Germany
T1 sequence (P05771 1-673 isoform P05771-2): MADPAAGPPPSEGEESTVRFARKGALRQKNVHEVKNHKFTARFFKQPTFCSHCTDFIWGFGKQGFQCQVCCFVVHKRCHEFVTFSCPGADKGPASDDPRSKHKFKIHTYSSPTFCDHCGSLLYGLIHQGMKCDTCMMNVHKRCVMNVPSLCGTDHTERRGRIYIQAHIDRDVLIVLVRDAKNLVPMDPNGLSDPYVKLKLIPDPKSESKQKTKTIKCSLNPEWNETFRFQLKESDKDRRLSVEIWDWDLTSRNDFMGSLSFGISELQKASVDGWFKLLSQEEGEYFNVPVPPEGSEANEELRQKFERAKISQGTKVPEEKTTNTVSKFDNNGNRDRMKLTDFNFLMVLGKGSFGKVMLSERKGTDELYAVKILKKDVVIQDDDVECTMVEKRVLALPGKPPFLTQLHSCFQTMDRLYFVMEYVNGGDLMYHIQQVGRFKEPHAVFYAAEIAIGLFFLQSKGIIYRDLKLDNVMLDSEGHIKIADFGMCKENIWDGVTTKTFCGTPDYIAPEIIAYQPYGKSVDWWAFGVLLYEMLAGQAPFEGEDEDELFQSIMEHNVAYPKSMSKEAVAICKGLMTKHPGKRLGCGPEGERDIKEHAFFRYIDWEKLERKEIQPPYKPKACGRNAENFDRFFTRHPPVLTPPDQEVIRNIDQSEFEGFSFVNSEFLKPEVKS
How it was run: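 Full-length PKC βII (30 ng/ml in pre-dilution) with PS/DAG/Ca2+ activators, pH 7.4; fluorescein peptide and ATP at 3 μM and 120 μM before mixing. Reaction ran 60 min at 32 °C, was EDTA-stopped, and was read by mobility shift. % inhibition came from product/(substrate+product) peak heights, tested at 1.14 μM final.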

Row | inhibition at 1.14 µM | SMILES | % Inhibition
1 | 40% | CCc1n[nH]c2nc(-c3ccc(O)cc3)cc(C(=O)N3CC[C@@H](N(C)C)C3)c12 [Example 176, ((R)-3-Dimethylamino-pyrrolidin-1-yl)-[3-ethyl-6-(4-hydroxy-phenyl)-1H-pyrazolo[3,4-b]pyridin-4-yl]-methanone] | –
2 | 50% | CCc1n[nH]c2nc(-c3ccc(O)cc3)cc(C(=O)N3CC[C@H](N(C)C)C3)c12 [Example 177, ((S)-3-Dimethylamino-pyrrolidin-1-yl)-[3-ethyl-6-(4-hydroxy-phenyl)-1H-pyrazolo[3,4-b]pyridin-4-yl]-methanone] | –
3 | 71% | CCc1n[nH]c2nc(-c3ccc(O)cc3)cc(C(=O)N3CCC(NC)C3)c12 (stereo not shown) [Example 178, [3-Ethyl-6-(4-hydroxy-phenyl)-1H-pyrazolo[3,4-b]pyridin-4-yl]-(3-methylamino-pyrrolidin-1-yl)-methanone] | –
4 | 55% | CCc1n[nH]c2nc(-c3ccc(O)cc3)cc(C(=O)N3C[C@]4(C)CN(C)C[C@](C)(C3)C4O)c12 (stereo partly drawn) [Example 179, [3-Ethyl-6-(4-hydroxy-phenyl)-1H-pyrazolo[3,4-b]pyridin-4-yl]-((1S,5R)-9-hydroxy-1,5,7-trimethyl-3,7-diaza-bicyclo[3.3.1]non-3-yl)-methanone] | –
5 | 53% | CCc1n[nH]c2nc(-c3ccc(O)cc3)cc(C(=O)NC3CCCN(C)C3)c12 (stereo not shown) [Example 180, 3-Ethyl-6-(4-hydroxy-phenyl)-1H-pyrazolo[3,4-b]pyridine-4-carboxylic acid (1-methyl-piperidin-3-yl)-amide] | –
6 | 77% | CCc1n[nH]c2nc(-c3ccc(O)cc3)cc(C(=O)NC3CC4(CCNCC4)c4ccccc43)c12 (stereo not shown) [Example 181, 3-Ethyl-6-(4-hydroxy-phenyl)-1H-pyrazolo[3,4-b]pyridine-4-carboxylic acid (2,3-dihydrospiro[1H-indene-1,4′-piperidin]-3-yl)-amide] | –
7 | 44% | CCc1n[nH]c2nc(-c3ccc(O)cc3)cc(C(=O)NC3CCN(C)CC3)c12 [Example 182, 3-Ethyl-6-(4-hydroxy-phenyl)-1H-pyrazolo[3,4-b]pyridine-4-carboxylic acid (1-methyl-piperidin-4-yl)-amide] | –
8 | 67% | CCc1n[nH]c2nc(-c3ccc(O)cc3)cc(C(=O)NC3CNC3)c12 [Example 183, 3-Ethyl-6-(4-hydroxy-phenyl)-1H-pyrazolo[3,4-b]pyridine-4-carboxylic acid azetidin-3-ylamide] | –
9 | 34% | CCc1n[nH]c2nc(-c3ccc(O)cc3)cc(C(=O)N[C@@H]3CCC(=O)NC3)c12 [Example 185, 3-Ethyl-6-(4-hydroxy-phenyl)-1H-pyrazolo[3,4-b]pyridine-4-carboxylic acid ((R)-6-oxo-piperidin-3-yl)-amide] | –
10 | 33% | CCc1n[nH]c2nc(-c3ccc(O)cc3)cc(C(=O)NCC3CCC(=O)N3)c12 (stereo not shown) [Example 186, 3-Ethyl-6-(4-hydroxy-phenyl)-1H-pyrazolo[3,4-b]pyridine-4-carboxylic acid (5-oxo-pyrrolidin-2-ylmethyl)-amide] | –
11 | 58% | CCc1n[nH]c2nc(-c3ccc(O)cc3)cc(C(=O)N3CCCN(CC)CC3)c12 [Example 187, (4-Ethyl-[1,4]diazepan-1-yl)-[3-ethyl-6-(4-hydroxy-phenyl)-1H-pyrazolo[3,4-b]pyridin-4-yl]-methanone] | –
12 | 105% | Cc1n[nH]c2nc(-c3ccc(O)cc3)cc(C(=O)N3CCNC[C@@H]3C)c12 [Example 188, [6-(4-Hydroxy-phenyl)-3-methyl-1H-pyrazolo[3,4-b]pyridin-4-yl]-((S)-2-methyl-piperazin-1-yl)-methanone] | –
13 | 96% | Cc1n[nH]c2nc(-c3ccc(O)cc3)cc(C(=O)N3CCN[C@H](C)C3)c12 [Example 189, [6-(4-Hydroxy-phenyl)-3-methyl-1H-pyrazolo[3,4-b]pyridin-4-yl]-((R)-3-methyl-piperazin-1-yl)-methanone] | –
14 | 101% | Cc1n[nH]c2nc(-c3ccc(O)cc3)cc(C(=O)N3CCN[C@@H](C)C3)c12 [Example 190, [6-(4-Hydroxy-phenyl)-3-methyl-1H-pyrazolo[3,4-b]pyridin-4-yl]-((S)-3-methyl-piperazin-1-yl)-methanone] | –
15 | 78% | Cc1n[nH]c2nc(-c3ccc(O)cc3)cc(C(=O)NC3CC4(CC(N)C4)C3)c12 (stereo not shown) [Example 191, 6-(4-Hydroxy-phenyl)-3-methyl-1H-pyrazolo[3,4-b]pyridine-4-carboxylic acid (6-amino-spiro[3.3]hept-2-yl)-amide] | –
16 | 99% | Cc1n[nH]c2nc(-c3ccc(O)cc3)cc(C(=O)N3CC4CNCC4C3)c12 (stereo not shown) [Example 192, (Hexahydro-pyrrolo[3,4-c]pyrrol-2-yl)-[6-(4-hydroxy-phenyl)-3-methyl-1H-pyrazolo[3,4-b]pyridin-4-yl]-methanone] | –
17 | 94% | Cc1n[nH]c2nc(-c3ccc(O)cc3)cc(C(=O)NC3CC4CC3CN4)c12 (stereo not shown) [Example 193, 6-(4-Hydroxy-phenyl)-3-methyl-1H-pyrazolo[3,4-b]pyridine-4-carboxylic acid (2-aza-bicyclo[2.2.1]hept-5-yl)-amide] | –
18 | 99% | Cc1n[nH]c2nc(-c3ccc(O)cc3)cc(C(=O)N3CCNC(C)C3C)c12 (stereo not shown) [Example 194, (2,3-Dimethyl-piperazin-1-yl)-[6-(4-hydroxy-phenyl)-3-methyl-1H-pyrazolo[3,4-b]pyridin-4-yl]-methanone] | –
19 | 95% | CCC[C@@H]1CN(C(=O)c2cc(-c3ccc(O)cc3)nc3[nH]nc(C)c23)CCN1 [Example 195, [6-(4-Hydroxy-phenyl)-3-methyl-1H-pyrazolo[3,4-b]pyridin-4-yl]-((R)-3-propyl-piperazin-1-yl)-methanone] | –
20 | 75% | Cc1n[nH]c2nc(-c3ccc(O)cc3)cc(C(=O)N3CCNC(C(F)(F)F)C3)c12 (stereo not shown) [Example 196, [6-(4-Hydroxy-phenyl)-3-methyl-1H-pyrazolo[3,4-b]pyridin-4-yl]-(3-trifluoromethyl-piperazin-1-yl)-methanone] | –
21 | 95% | COC(=O)CC1CNCCN1C(=O)c1cc(-c2ccc(O)cc2)nc2[nH]nc(C)c12 (stereo not shown) [Example 197, {1-[6-(4-Hydroxy-phenyl)-3-methyl-1H-pyrazolo[3,4-b]pyridine-4-carbonyl]-piperazin-2-yl}-acetic acid methyl ester] | –
22 | 99% | Cc1n[nH]c2nc(-c3ccc(O)cc3)cc(C(=O)N3CCNC(C)(C)C3)c12 [Example 198, (3,3-Dimethyl-piperazin-1-yl)-[6-(4-hydroxy-phenyl)-3-methyl-1H-pyrazolo[3,4-b]pyridin-4-yl]-methanone] | –
23 | 99% | Cc1n[nH]c2nc(-c3ccc(O)cc3)cc(C(=O)N3CCNCC3(C)C)c12 [Example 199, (2,2-Dimethyl-piperazin-1-yl)-[6-(4-hydroxy-phenyl)-3-methyl-1H-pyrazolo[3,4-b]pyridin-4-yl]-methanone] | –
24 | – | Cc1n[nH]c2nc(-c3ccc(O)cc3)cc(C(=O)N[C@@H]3CN4CCC3CC4)c12 [Example 200] | 70%

Row | SMILES | inhibition at 1.14 µM | % Inhibition
25 | CCc1n[nH]c2nc(-c3ccc(O)cc3)cc(C(=O)NC3CC4CCCC(C3)N4C)c12 (stereo not shown) [Example 184, 3-Ethyl-6-(4-hydroxy-phenyl)-1H-pyrazolo[3,4-b]pyridine-4-carboxylic acid (9-methyl-9-aza-bicyclo[3.3.1]non-3-yl)-amide] | 22% | –
